The text below walks through data of US9732063B2, “Kinase inhibitors” (RESPIVERT LIMITED, priority 2012, dated 2017).

Read-outs that look alike come from different tables or passages of the source.

One assay concerns the target GSK3α (Homo sapiens (Human), UniProt P49840). Put plainly: GSK 3α enzyme inhibition (Z-LYTE FRET, Method 2). It is filed as biochemical. In short, it runs like this: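 Z-LYTE FRET: GSK3α preincubated with compound 2 h at RT, then FRET peptide and ATP added (stocks 8 μM and 40 μM) for 1 h, followed by 1 h protease development. Compound stocks 4–0.004 μg/mL; phosphorylation from coumarin/fluorescein emission ratio.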

In assay [1] the test system is PBMCs. Put plainly: IL-2 and IFN gamma release in CD3/CD28 stimulated PBMC cells. It counts as cell-based. The settings on record: Homo sapiens. In short, it runs like this: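 They were cultured with compound for 3 days. IL-2 and IFN-γ in supernatants were quantified by sandwich ELISA, and IC50 was derived from the dose-response curve.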
In the next assay the test system is HT29 cells. Put plainly: IL-1β-induced IL-8 release in HT29 cells. It counts as cell-based. Conditions: Homo sapiens, HT-29, read-out: IC50 Values for Inhibition of Cytokine Release HT29 cells IL-8. How it is done:
HT29 cells, a human colon adenocarcinoma cell line, are plated in a 96 well plate (24 hrs) and pre-treated with compounds at the desired concentration for 2 hours before addition of 5 ng/mL of IL-1β (Abcam) for 24 hours. Supernatants are harvested for IL-8 quantification by Sandwich ELISA (Duo-set, R&D System). The IC50 is determined from the dose response curve.

Assay [2] deals with intestinal mucosa biopsies from the inflamed regions of the colon. Briefly: Human biopsy assay (intestinal mucosa biopsies of ulcerative colitis patients). It counts as cell-based. Conditions: 24 hours; for cytokine (IL-1β, IL-6 and IL-8) release compared to the DMSO control: biopsies from ulcerative colitis patients; for IL-1β release / IL-6 release / IL-8 release: 1 μg/ml, biopsies of UC patients, DMSO control = 100%. How it is done: Intestinal mucosa biopsies are obtained from the inflamed regions of the colon of IBD patients. […] DMSO control or test compounds at the desired concentration are added to the tissue and incubated for 24 hr in the organ culture chamber. The supernatant is harvested for determination of IL-6, IL-8, IL-1β and TNFα levels by R&D ELISA.

The test system of assay [3] is PBMCs. Put plainly: LPS-induced TNFα/IL-8 release in PBMC cells. It counts as cell-based. The settings on record: Homo sapiens. In short, it runs like this: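 Healthy-donor PBMCs, isolated by density gradient, were pretreated with compound for 2 h and then stimulated with 1 ng/mL E. coli O111:B4 LPS for 24 h at 37 °C, 5% CO2. Supernatant IL-8 and TNFα were quantified by sandwich ELISA.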

The target of a further assay is c-Src (Homo sapiens (Human), UniProt P12931). Briefly: c-Src enzyme inhibition (Z-LYTE FRET). It counts as biochemical. The essentials: (§1)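 Kinase activity is measured on a dual-labelled synthetic peptide by FRET. ATP is supplied as an 800 μM solution for c-Src and a 60 μM solution for Syk. Compound is tested at four added concentrations, 4 to 0.004 μg/mL.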
Sequence of c-Src (P12931 whole entry, looked up): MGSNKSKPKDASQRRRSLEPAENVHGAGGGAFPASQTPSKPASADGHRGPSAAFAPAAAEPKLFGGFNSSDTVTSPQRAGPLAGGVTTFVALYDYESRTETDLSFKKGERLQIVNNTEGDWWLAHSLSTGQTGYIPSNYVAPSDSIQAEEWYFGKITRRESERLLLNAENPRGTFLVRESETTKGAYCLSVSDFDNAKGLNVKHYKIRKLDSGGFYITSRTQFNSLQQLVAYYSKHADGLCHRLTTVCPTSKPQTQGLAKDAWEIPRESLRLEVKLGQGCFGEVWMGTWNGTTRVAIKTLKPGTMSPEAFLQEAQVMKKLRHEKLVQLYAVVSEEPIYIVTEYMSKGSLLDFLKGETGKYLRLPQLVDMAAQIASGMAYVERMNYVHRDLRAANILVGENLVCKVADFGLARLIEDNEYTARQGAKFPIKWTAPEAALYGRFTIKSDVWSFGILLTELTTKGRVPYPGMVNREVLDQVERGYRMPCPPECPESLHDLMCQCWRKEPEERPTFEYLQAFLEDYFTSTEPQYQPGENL
The test system of a further assay is TNBS-induced colitis. The settings on record: for LP inflammation / Ulcer grade: oral gavage BID, conducted over 2 days, mice; for inflammatory cell infiltrate in the reticular and laminar propria zone / ulcer grade and epithelial repair compared to the vehicle control: dosed orally at either 1 or 5 mg/kg.
The next assay has as its target p38 MAPKα (Homo sapiens (Human), UniProt Q16539). Put plainly: p38 MAPKα enzyme inhibition (Z-LYTE FRET, Method 2). It counts as biochemical.
The test system of another assay is d-U937 cells. Briefly: LPS-induced TNFα/IL-8 release in d-U937 cells. It counts as cell-based. Conditions: Homo sapiens. The method, then: Cells are pre-incubated with final concentrations of test compound for 2 hr and are then stimulated with 0.1 μg/mL of LPS (from E. coli: O111:B4, Sigma) for 4 hr. The supernatant is collected for determination of TNFα and IL-8 concentrations by sandwich ELISA (Duo-set, R&D systems). […] The relative 50% effective concentration (REC50) is determined from the resultant concentration-response curve. The inhibition of IL-8 production is calculated at each concentration of test compound by comparison with vehicle control.

The target of another assay is Syk (Homo sapiens (Human), UniProt P43405). Briefly: Syk enzyme inhibition (Z-LYTE FRET). It is filed as biochemical. The essentials:
as §1

Setting [4] is: read-out: IC50 Values for Inhibition of Cytokine Release PBMCs IFNγ.
[5] abbreviates: read-out: IC50 Values for Inhibition of Cytokine Release PBMCs IL-2.
[6] abbreviates: read-out: IC50 Values for Inhibition of Cytokine Release PBMCs IL-8.
Where [7] appears, read: dU937, read-out: IC50 Values for Inhibition of Cytokine Release dU937 cells IL-8.
The mark [8] stands for this setting: dU937, read-out: IC50 Values for Inhibition of Cytokine Release dU937 cells TNFα.
Setting [9] is: read-out: IC50 Values for Inhibition of Cytokine Release PBMCs TNFα.

Sequence of p38 MAPKα (Q16539 whole entry): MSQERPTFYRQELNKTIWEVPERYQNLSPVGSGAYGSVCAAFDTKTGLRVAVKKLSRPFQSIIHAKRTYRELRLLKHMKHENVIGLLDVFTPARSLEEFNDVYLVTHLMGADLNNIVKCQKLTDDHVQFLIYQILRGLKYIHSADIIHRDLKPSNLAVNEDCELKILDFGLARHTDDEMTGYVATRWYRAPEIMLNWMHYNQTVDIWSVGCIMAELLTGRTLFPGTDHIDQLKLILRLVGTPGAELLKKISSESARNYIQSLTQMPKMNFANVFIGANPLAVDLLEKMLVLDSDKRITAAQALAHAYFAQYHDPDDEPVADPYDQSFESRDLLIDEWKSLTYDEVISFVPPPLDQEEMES
Sequence of GSK3α (P49840 whole entry): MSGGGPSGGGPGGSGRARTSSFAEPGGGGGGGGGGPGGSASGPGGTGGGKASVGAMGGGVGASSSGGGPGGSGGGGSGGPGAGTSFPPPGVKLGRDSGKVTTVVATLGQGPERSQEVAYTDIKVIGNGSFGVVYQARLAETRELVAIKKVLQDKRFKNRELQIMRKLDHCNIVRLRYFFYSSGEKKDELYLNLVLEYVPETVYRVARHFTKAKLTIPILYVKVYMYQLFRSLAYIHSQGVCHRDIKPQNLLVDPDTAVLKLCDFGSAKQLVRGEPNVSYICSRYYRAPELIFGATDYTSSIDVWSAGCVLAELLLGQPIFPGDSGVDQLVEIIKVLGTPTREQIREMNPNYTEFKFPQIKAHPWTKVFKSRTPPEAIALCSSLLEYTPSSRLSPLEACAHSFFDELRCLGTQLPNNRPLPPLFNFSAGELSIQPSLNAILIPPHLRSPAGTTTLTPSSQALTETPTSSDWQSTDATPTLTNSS
Protocol for TNBS-induced colitis: On Day 0 of the study TNBS (200 μL) is administered intra-colonically via a plastic catheter followed by BID dosing of the vehicle, reference or test compound for 2 or 4 days. During the study animals are weighed every day and stool observations are made and recorded as a score, based on stool consistency. At the time of sacrifice on Day 2 (or Day 4) the large intestine is removed and the length and weight recorded. Sections of the colon are taken for either MPO analysis to determine neutrophil infiltration or for histopathology involving scoring to determine disease severity.

On to `COCCOCCOCCOc1cc(Nc2nccc(Oc3ccc(NC(=O)Nc4cc(C(C)C)nn4-c4ccc(C)cc4)c4ccccc34)n2)cc(OC)c1` [Example 13, 1-(3-Isopropyl-1-(p-tolyl)-1H-pyrazol-5-yl)-3-(4-((2-((3-methoxy-5-(2-(2-(2-methoxy-ethoxy)ethoxy)ethoxy)phenyl)amino)pyrimidin-4-yl)oxy)naphthalen-1-yl)urea], for which the IC50 against GSK3α was greater than 8920 nM; with PBMCs [1] (setting [4]), 3 nM; in the assay with PBMCs [1] (setting [5]), 19.2 nM; in the assay with HT29 cells, 4.7 nM; in the assay with PBMCs [3] (setting [6]), 2.5 nM; at c-Src, 10 nM. The IC50 against p38 MAPKα is 65 nM; in the assay with d-U937 cells (setting [7]) it was 1.4 nM; in the assay on d-U937 cells (setting [8]), 4.4 nM. Further, the “cytokine (IL-1β, IL-6 and IL-8) release compared to the DMSO control” value (“cytokine … compared to the DMSO control” below) in [2] (0.1 μg/mL (data not shown)) and in assay [2] (1 μg/mL) was “significantly inhibited” each time. In assay [2], this molecule showed an IL-1β release of 10 ± 13%. In addition, the IL-6 release in assay [2] is given as 32 ± 64%. This molecule also returned an IL-8 release in assay [2] of 3 ± 4%. Moreover, the LP inflammation in the assay on TNBS-induced colitis (1 mg/kg) was found to be 2.1 ± 0.3; in the assay on TNBS-induced colitis (5 mg/kg), 2.6 ± 0.3. The Ulcer grade in the assay with TNBS-induced colitis (1 mg/kg) was determined as 2.5 ± 0.4; in the assay on TNBS-induced colitis (5 mg/kg), 3.1 ± 0.3. Besides, the “inflammatory cell infiltrate in the reticular and laminar propria zone” value (shortened to “inflammatory cell infiltrate”) with TNBS-induced colitis is listed as “marked reduction”. Also, in the assay on TNBS-induced colitis, the “ulcer grade and epithelial repair compared to the vehicle control” value was “marked improvements”.

`COCCOCCOCCOc1cc(Nc2nccc(Oc3ccc(NC(=O)Nc4cc(C(C)(C)C)nn4-c4ccc(OC)nc4)c4ccccc34)n2)cc(OC)c1` [Example 38, 1-(3-(tert-Butyl)-1-(6-methoxypyridin-3-yl)-1H-pyrazol-5-yl)-3-(4-((2-((3-methoxy-5-(2-(2-(2-methoxyethoxyl)ethoxy)ethoxy)phenyl)amino)pyrimidin-4-yl)oxy)naphthalen-1-yl)urea]: the IC50 against Syk is 25 nM; against GSK3α, 5440 nM; in the assay on PBMCs [1] (setting [4]), 1.3 nM; in the assay with PBMCs [1] (setting [5]), 40.9 nM; in the assay on HT29 cells, 1.8 nM; in the assay on PBMCs [3] (setting [6]), 1.5 nM. For the same molecule, the IC50 against c-Src was found to be 10 nM; on p38 MAPKα, 132 nM; in the assay with d-U937 cells (setting [7]), 1 nM.

Turning to `COCCOCCOCCOc1cc(Nc2nccc(Oc3ccc(NC(=O)Nc4cc(C(C)(C)C)nn4-c4ccc(OC)cc4)c4ccccc34)n2)cc(OC)c1` [Example 44, 1-(3-(tert-Butyl)-1-(4-methoxyphenyl)-1H-pyrazol-5-yl)-3-(4-((2-((3-methoxy-5-(2-(2-(2-methoxyethoxy)ethoxy)ethoxy)phenyl)amino)pyrimidin-4-yl)oxy)naphthalen-1-yl)urea], the IC50 at Syk is 23 nM; with PBMCs [1] (setting [4]) it was 1.4 nM; in the assay with PBMCs [1] (setting [5]), 38.5 nM; with HT29 cells it was 1.2 nM; in the assay with PBMCs [3] (setting [6]), 1.6 nM; in the assay with PBMCs [3] (setting [9]), 0.6 nM. For the same molecule, the half-inhibitory concentration (IC50) was determined as 10 nM against c-Src, 103 nM against p38 MAPKα, 0.6 nM in the assay on d-U937 cells (setting [7]) and 0.5 nM with d-U937 cells (setting [8]). In assay [2] (1 μg/mL), the “cytokine … compared to the DMSO control” value is recorded as “significantly inhibited”. Besides, the IL-1β release in [2] came out at 4 ± 5%. Moreover, the IL-6 release in assay [2] is recorded as 25 ± 44%. Further, the IL-8 release in [2] turned out to be 2 ± 2%. Moreover, the “inflammatory cell infiltrate” value with TNBS-induced colitis was “marked reduction”. Further, the “ulcer grade and epithelial repair compared to the vehicle control” value in the assay with TNBS-induced colitis is on record as “marked improvements”.

Consider `COc1cc(Nc2nccc(Oc3ccc(NC(=O)Nc4cc(C(C)(C)C)nn4-c4ccc(C)cc4)c4ccccc34)n2)cc(S(=O)(=O)C2CC2)c1` [Example 47, 1-(3-(tert-Butyl)-1-(p-tolyl)-1H-pyrazol-5-yl)-3-(4-((2-((3-(cyclopropylsulfonyl)-5-methoxy-phenyl)amino)pyrimidin-4-yl)oxy)naphthalen-1-yl)urea], for which the IC50 was 6830 nM against GSK3α; 1.1 nM in the assay with PBMCs [1] (setting [4]); 95.8 nM in the assay on PBMCs [1] (setting [5]); 1.5 nM in the assay with HT29 cells; 2.6 nM in the assay on PBMCs [3] (setting [6]); 46 nM on c-Src. Also, the 50% inhibitory concentration (IC50) against p38 MAPKα is 162 nM; in the assay on d-U937 cells (setting [7]), 1.2 nM; in the assay with d-U937 cells (setting [8]), 0.6 nM. In [2] (1 μg/mL), the “cytokine … compared to the DMSO control” value is recorded as “significantly inhibited”. In addition, in assay [2], the IL-1β release was found to be 5 ± 6%. Further, the IL-6 release in assay [2] was determined as 17 ± 5%. Also, the IL-8 release in assay [2] is 26 ± 15%. In addition, the figures for the LP inflammation in the assay with TNBS-induced colitis (1 mg/kg) and in the assay on TNBS-induced colitis (5 mg/kg) were 2.6 ± 0.3 and 2.1 ± 0.3, respectively. Further, the figures for the Ulcer grade in the assay with TNBS-induced colitis (1 mg/kg) and in the assay on TNBS-induced colitis (5 mg/kg) were 3.5 ± 0.4 and 2.8 ± 0.4, respectively. Further, the “inflammatory cell infiltrate” value in the assay with TNBS-induced colitis is given as “marked reduction”. Also, in the assay with TNBS-induced colitis, the “ulcer grade and epithelial repair compared to the vehicle control” value is recorded as “marked improvements”.

In the case of `COCCOCCOCCOc1cc(Nc2cc(Oc3ccc(NC(=O)Nc4cc(C(C)(C)C)nn4-c4ccc(C)cc4)c4ccccc34)ccn2)cc(OC)c1` [Example 56, 1-(3-(tert-Butyl)-1-(p-tolyl)-1H-pyrazol-5-yl)-3-(4-((2-((3-methoxy-5-(2-(2-(2-methoxyethoxy)ethoxy)ethoxy)phenyl)amino)pyridin-4-yl)oxy)naphthalen-1-yl)urea], the IC50 on Syk amounted to 43 nM; with PBMCs [1] (setting [4]) it was 2.7 nM; in the assay with PBMCs [1] (setting [5]), 152 nM; in the assay with HT29 cells, 4.5 nM; in the assay on PBMCs [3] (setting [6]), 2.4 nM; in the assay on PBMCs [3] (setting [9]), 1.6 nM. Further, the IC50 on c-Src came to 28 nM; against p38 MAPKα, 140 nM; in the assay with d-U937 cells (setting [7]) it was 1.4 nM; in the assay on d-U937 cells (setting [8]) it was 0.8 nM. In addition, the “cytokine … compared to the DMSO control” value in assay [2] (1 μg/mL) is listed as “significantly inhibited”. The same molecule had an IL-1β release in [2] of 5 ± 1%. For the same molecule, in assay [2], the IL-6 release is recorded as 19 ± 18%. Further, the IL-8 release in assay [2] is reported as 3 ± 3%. In addition, the results for the LP inflammation in the assay on TNBS-induced colitis (1 mg/kg) and with TNBS-induced colitis (5 mg/kg) were 2.1 ± 0.3 and 2.4 ± 0.3, respectively. Moreover, the figures for the Ulcer grade in the assay with TNBS-induced colitis (1 mg/kg) and with TNBS-induced colitis (5 mg/kg) were 2.3 ± 0.4 and 3.2 ± 0.4, respectively. In the assay on TNBS-induced colitis, the “inflammatory cell infiltrate” value is reported as “marked reduction”. In addition, in the assay with TNBS-induced colitis, the “ulcer grade and epithelial repair compared to the vehicle control” value is reported as “marked improvements”.

In the case of `COCCOCCOCCOc1cc(Nc2nccc(Oc3ccc(NC(=O)Nc4cc(C(C)(C)C)nn4-c4ccc(C)cc4)c4ccccc34)n2)cc(OC)n1` [Example 69, 1-(3-(tert-Butyl)-1-(p-tolyl)-1H-pyrazol-5-yl)-3-(4-((2-((2-methoxy-6-(2-(2-(2-methoxyethoxy)ethoxy)ethoxy)pyridin-4-yl)amino)pyrimidin-4-yl)oxy)naphthalen-1-yl)urea], the IC50 at Syk was 27 nM; at GSK3α it was greater than 10000 nM; in the assay on PBMCs [1] (setting [4]) it was 1.4 nM; with PBMCs [1] (setting [5]) it was 50.3 nM; with HT29 cells it was 3.1 nM; with PBMCs [3] (setting [6]), 1.6 nM. Besides, the half-maximal inhibitory concentration (IC50) on c-Src was determined as 14 nM; against p38 MAPKα, 172 nM; in the assay on d-U937 cells (setting [7]), 0.9 nM; with d-U937 cells (setting [8]) it was 1.2 nM.
